Measurements taken from US8540999B2, “Allergenic proteins and peptides from Japanese cedar pollen” (Merck Patent GmbH, priority 1991, dated 2013).
Ends that are not written are not given here.

Experiments:
[1] = tested on: Cry j II reactive T cells; assay: T cell proliferation assay, Cry j II primed T cell lines (Example 19); format: cell-based, human
Protocol: Long term T cell lines were established by stimulation of 2×10^6 PBL/ml in bulk cultures of complete medium (RPMI-1640, 2 mM L-glutamine, 100 U/ml penicillin/streptomycin, 5×10^−5M 2-mercaptoethanol, and 10 mM HEPES supplemented with 5% heat inactivated human AB serum) with 10 μg/ml of partially purified native Cry j II for 7 days at 37° C. in a humidified 5% CO2 incubator to select for Cry j II reactive T cells. This amount of priming antigen was determined to be optimal for the activation of T cells from most Japanese cedar pollen Cry j II allergic patients. Viable cells were purified by LSM centrifugation and cultured in complete medium supplemented with 5 units recombinant human IL-2/ml and 5 units recombinant human IL-4/ml for up to three weeks until the cells no longer responded to lymphokines and were considered “rested”. The ability of the T cells to proliferate to peptides Cry j IIA (SEQ ID NO: 185) and Cry j IIB (SEQ ID NO: 186), recombinant Cry j II (rCry j II) (SEQ ID NO: 134), purified native Cry j II, was then assessed. For assay, 2×10^4 rested cells were restimulated in the presence of 2×10^4 autologous Epstein-Barr virus (EBV)-transformed B cells (prepared as described in Example 6) (gamma-irradiated with 25,000 RADS) with 2-50 ’g/ml of rCry j II (SEQ ID NO: 134), purified native Cry j II, peptides Cry j IIA (SEQ ID NO: 185) and Cry j IIB (SEQ ID NO: 186), positive control (PHA), negative control (Amb a I.1), in a volume of […] complete medium in duplicate or triplicate wells in 96-well round bottom plates for 2-4 days. […] Each well then received 1 μCi tritiated thymidine for 16-20 hours. The counts incorporated were collected onto glass fiber filter mats and processed for liquid scintillation counting. The maximum response in a titration of each peptide is expressed as the stimulation index (S.I.). The S.I. is the counts per minute (CPM) incorporated by cells in response to peptide, divided by the CPM incorporated by cells in medium only. A positivity index may be calculated by multiplying the mean S.I. (indicated above each bar in FIGS. 42 and 43) by the percentage of individuals responding to the peptide (indicated in parentheses above each bar in FIGS. 42 and 43). […]

[2] = Stability in aqueous buffer; format: physicochemical; settings: pH6 to pH8
Excerpt: (§1) Of the above group of modified peptides, several peptides have been identified as “unique” modified peptides. […] Certain modified peptides are characterized as “unique” due to the difficulties encountered when developing a modified peptide which meets all of the stringent requirements of a “unique” peptide defined herein. In many cases, multiple modifications of a parent peptide are attempted prior to identifying a modified derivitive peptide which meets all the characteristics of a “unique” modified peptide. Unique modified peptides are particularly useful as candidate peptides for formulating injectable multipeptide therapeutic formulations of the invention because “unique” modified peptides are soluble and stable in the same physiologically acceptable pH range as well as elicit the necessary T cell reactivity of a therapeutic peptide of the invention. “Unique” modified peptides of the invention include but are not limited to the following group of modified peptides: CJ1-24.5, CJ1-43.39, CJ1-43.50, CJ1-44.8, and CJ1-44.9 all as shown in FIGS. 20 and 44. Example 21 describes the development and identification of “unique” modified peptides of the invention.
(§2) Additional truncation of two C-terminal residues yielded 44.2 (SEQ ID NO: ). […] Thus, 44.2 (SEQ ID NO: ) was further modified by the addition of charged (hydrophilic residues) to the N-terminus and by replacement of the hydrophobic residue Val with the less hydrophobic residue Ala. […] CJI-44.8 (SEQ ID NO: 132) was stable and soluble at greater than 5 mg/ml over the pH range pH6-pH8 in an aqueous buffer.

[3] = Solubility, pH range protocol procedure; format: physicochemical; settings: pH range pH6 to pH8
Excerpt: as §1, §2

Cry j I reactive T cells = assay: T cell proliferation assay, Cry j I primed T cell lines (Example 6); format: cell-based, human; settings: for T cell reactivity: Example 21 narrative, parent peptides of CJI-44.8; for T cell line response: panel of twenty-five patients, FIG. 14
Protocol: Viable cells were purified by LSM centrifugation and cultured in complete medium supplemented with 5 units recombinant human IL-2/ml and 5 units recombinant human IL-4/ml for up to three weeks until the cells no longer responded to lymphokines and were considered “rested”. The ability of the T cells to proliferate to selected peptides, recombinant Cry j I (rCry j I), purified native Cry j I, or recombinant Amb aI.1 (rAmb aI.1) or a positive control, phyto-hemaglutinin (PHA) was then assessed. For assay, 2×10^4 rested cells were restimulated in the presence of 2×10^4 autologous Epstein-Barr virus (EBV)-transformed B cells (prepared as described below) (gamma-irradiated with 25,000 RADS) with 2-50 μg/ml of selected peptides, Cry j I, purified native Cry j I or rAmb a I.1 or PHA, in a volume of 200 μl complete medium in duplicate or triplicate wells in 96-well round bottom plates for 2-4 days. […] Each well then received 1 μCi tritiated thymidine for 16-20 hours. The counts incorporated were collected onto glass fiber filter mats and processed for liquid scintillation counting. […] The titrations were used to optimize the dose of peptides in T cell assays. The maximum response in a titration of each peptide is expressed as the stimulation index (S.I.). The S.I. is the counts per minute (CPM) incorporated by cells in response to peptide, divided by the CPM incorporated by cells in medium only.
The above procedure was followed with a number of other patients. […] The bars represent the positivity index. Above each bar is the percent of positive responses with an S.I. of at least two to the peptide or protein in the group of patients tested. In parenthesis above each bar are the mean stimulation indices for each peptide or protein for the group of patients tested.
Autologous EBV-transformed cell lines were y-irradiated with 25,000 Rad and used as antigen presenting cells in secondary proliferation assays and secondary bulk stimulations. These EBV-transformed cell lines were made by incubating 5×10^6 PBL with 1 ml of B-59/8 Marmoset cell line (ATCC CRL1612, American Type Culture Collection, Rockville, Md.) conditioned medium in the presence of 1 μg/ml phorbol 12-myristate 13-acetate (PMA) at 37° C. for 60 minutes in 12×75 mm polypropylene round-bottom Falcon snap cap tubes (Becton Dickinson Labware, Lincoln Park, N.J.). These cells were then diluted to 1.25×10^6 cells/ml in RPMI-1640 as described above except supplemented with 10% heat-inactivated fetal bovine serum and cultured in 200 μl aliquots in flat bottom culture plates until visible colonies were detected. They were then transferred to larger wells until the cell lines were established.

patients' plasma IgE = assay: Direct binding assay of IgE to Cry j I, Cry j II and recombinant Cry j II (Example 18); set-up: species or system human
Protocol: Costar assay plates were coated with Cry j I or Cry j II at 2 μg/mL or recombinant Cry j II preparation at 10 μg/mL (approximately 20% pure) in a volume of 50 μL overnight at 4° C. The coating antigens were removed and the wells were blocked with 0.5% gelatin, PVP (polyvinyl pyrolidine) 1 mg/mL in PBS, 200 μL/well for 2 hours at room temperature. The anti-Cry j I monoclonal antibody, 4B11, was serially diluted in PBS-Tween 20 starting at a 1:1000 dilution. The human plasma were serially diluted in PBS-Tween at a starting dilution of 1:2. For this set 23 plasma samples from patients symptomatic for Japanese cedar pollen allergy chosen for IgE binding analysis. The first antibody incubation proceeded overnight at 4° C. Following three washes with PBS-Tween the second antibodies were added (biotinylated goat anti-mouse Ig or goat anti-human IgE both at 1:2000) and incubated for two hours at room temperature at 100 μL/well. After washing 3 times, […]. This solution was removed and streptavidin-HRPO diluted to 1:10,000, was added at 100 μL/well. The color was allowed to develop for 2-5 minutes. The reaction was stopped by the addition of 100 μL/well of 1M phosphoric acid. Plates were read on a Microplate IL310 Autoreader (Biotek Instruments, Winooski, Vt.) with a 450 nm filter. The absorbance levels of duplicate wells were averaged. A positive binding result, indicated by a plus sign is determined to be a reading of two-fold or greater above background (no first antibody) at the second dilution of plasma ([…]).

[4] = aqueous sodium phosphate buffer

## Cry j IIH: SEQ ID NO: 192, amino acids 386-409 of Cry j II (DSMPCKDIKLSDISLKLTSGKIAS; listed as Cryptomeria japonica)
[1]; 9 patients, FIG. 43
  T cell proliferative response: react

## DEEGAYFVSSGKYEGGNIYTKKEAFNVEDE [CJ1-44.9]
[2]
  stability: stable
[3]; aqueous buffer
  solubility: > 5000 µg/mL

## CJ1-31: Cry j I peptide, SEQ ID NO: 56 (DVFYNGAYFVSSGKYEGGNI; listed as Cryptomeria japonica)
Cry j I reactive T cells
  T cell reactivity: high T-cell reactivity
  T cell line response: responded

## CJ1-32: Cry j I peptide, SEQ ID NO: 57 (SSGKYEGGNIYTKKEAFNVE; listed as Cryptomeria japonica)
Cry j I reactive T cells
  T cell reactivity: high T-cell reactivity
  T cell line response: responded

## Cry j IIG: SEQ ID NO: 191, amino acids 152-175 of Cry j II (GKGVIDGQGKQWWAGQCKWVNGRE; listed as Cryptomeria japonica)
[1]; 9 patients, FIG. 43
  T cell proliferative response: react

## DDAYSDDKSMKVTVAFNQFGDE [CJ1-43.39]
[2]
  stability: stable
[3]; [4]
  solubility: > 5000 µg/mL

## KSMKVTVAFNQARK [CJ1-43.50]
[2]
  stability: stable
[3]; aqueous buffer
  solubility: > 5000 µg/mL

## DKEPRARYGLVHVANNNYDPWTIEEE [CJ1-24.5]
[2]
  stability: stable
[3]; [4]
  solubility: > 5000 µg/mL

B1: Cry j IIE: recombinant peptide, amino acids 281-396 of Cry j II, SEQ ID NO: 189 (protein, listed as Cryptomeria japonica)
chain: MGHHHHHHEFSIGSLGRENSRAEVSYVHVNGAKFIDTQNGLRIKTWQGGSGMASHIIYENVEMINSENPILINQFYCTSASACQNQRSAVQIQDVTYKNIRGTSATAAAIQLKCSDSMPCKDIKLSD
[1]; 9 patients, FIG. 43
  T cell proliferative response: react

B2: Cry j IIF: recombinant peptide, amino acids 397-514 of Cry j II, SEQ ID NO: 190 (protein, listed as Cryptomeria japonica)
chain: MGHHHHHHEFISLKLTSGKIASCLNDNANGYFSGHVIPACKNLSPSAKRKESKSHKHPKTVMVENMRAYDKGNRTRILLGSRPPNCTNKCHGCSPCKAKLVIVHRIMPQEYYPQRWICSCHGKIYHP
[1]; 9 patients, FIG. 43
  T cell proliferative response: react

B3: Cry j IIC: recombinant peptide, amino acids 46-163 of Cry j II, SEQ ID NO: 187 (protein, listed as Cryptomeria japonica)
chain: MGHHHHHHEFRKVEHSRHDAINIFNVEKYGAVGDGKHDCTEAFSTAWQAACKNPSAMLLVPGSKKFVVNNLFFNGPCQPHFTFKVDGIIAAYQNPASWKNNRIWLQFAKLTGFTLMGKGVIDGQGKQW
[1]; 9 patients, FIG. 43
  T cell proliferative response: react

B4: Cry j IID: recombinant peptide, amino acids 164-280 of Cry j II, SEQ ID NO: 188 (protein, listed as Cryptomeria japonica)
chain: MGHHHHHHEFWAGQCKWVNGREICNDRDRPTAIKFDFSTGLIIQGLKLMNSPEFHLVFGNCEGVKIIGISITAPRDSPNTDGIDIFASKNFHLQKNTIGTGDDCVAIGTGSSNIVIEDLICGPGHGI
[1]; 9 patients, FIG. 43
  T cell proliferative response: react

B5: rCry j II: recombinant Cry j II expressed in E. coli with His6 leader (protein, listed as Cryptomeria japonica)
chain: MAMKLIAPMAFLAMQLIIMAAAEDQSAQIMLDSVVEKYLRSNRSLRKVEHSRHDAINIFNVEKYGAVGDGKHDCTEAFSTAWQAACKNPSAMLLVPGSKKFVVNNLFFNGPCQPHFTFKVDGIIAAYQNPASWKNNRIWLQFAKLTGFTLMGKGVIDGQGKQWWAGQCKWVNGREICNDRDRPTAIKFDFSTGLIIQGLKLMNSPEFHLVFGNCEGVKIIGISITAPRDSPNTDGIDIFASKNFHLQKNTIGTGDDCVAIGTGSSNIVIEDLICGPGHGISIGSLGRENSRAEVSYVHVNGAKFIDTQNGLRIKTWQGGSGMASHIIYENVEMINSENPILINQFYCTSASACQNQRSAVQIQDVTYKNIRGTSATAAAIQLKCSDSMPCKDIKLSDISLKLTSGKIASCLNDNANGYFSGHVIPACKNLSPSAKRKESKSHKHPKTVMVENMRAYDKGNRTRILLGSRPPNCTNKCHGCSPCKAKLVIVHRIMPQEYYPQRWICSCHGKIYHP
[1]; 9 patients, FIG. 43
  T cell proliferative response: react
[1]; n=6 patients, FIG. 42
  T cell proliferative response: respond well
patients' plasma IgE; patient #1034
  plasma IgE binding response: negative
patients' plasma IgE; patient plasma samples, FIGS. 31-33
  plasma IgE binding response: further reduction in binding
patients' plasma IgE; patients #1143 and #1146
  plasma IgE binding response: clearly positive
